Where “and” joins values, the source holds several entries; their conditions need not be identical. Equal entries are not always repeated.
How the values were obtained:
[1] = biological target: T1, Plasmodium falciparum calcium-dependent protein kinase 4 (CDPK4) (Plasmodium falciparum, UniProt Q8IBS5); experiment: CDPK4 Kinase-Glo ATP-consumption screen and dose-response; type: biochemical; conditions: hits below 1 uM
T1 construct: 6-Histidine (N); made in house
T1 sequence (Q8IBS5 1-528): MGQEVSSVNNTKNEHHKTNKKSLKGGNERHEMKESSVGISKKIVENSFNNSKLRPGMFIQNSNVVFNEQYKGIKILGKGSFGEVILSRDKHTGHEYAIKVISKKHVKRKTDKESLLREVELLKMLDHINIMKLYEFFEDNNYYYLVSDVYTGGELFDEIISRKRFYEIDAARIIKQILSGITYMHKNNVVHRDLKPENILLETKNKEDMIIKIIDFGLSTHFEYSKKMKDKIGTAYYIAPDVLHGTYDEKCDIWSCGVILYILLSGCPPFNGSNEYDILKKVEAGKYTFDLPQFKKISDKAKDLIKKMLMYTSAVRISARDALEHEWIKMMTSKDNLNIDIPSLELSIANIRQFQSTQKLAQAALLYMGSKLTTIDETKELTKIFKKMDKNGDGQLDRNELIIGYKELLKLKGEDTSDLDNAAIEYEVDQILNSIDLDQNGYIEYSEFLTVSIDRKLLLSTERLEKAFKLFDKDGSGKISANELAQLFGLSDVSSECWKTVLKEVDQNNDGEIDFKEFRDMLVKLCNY
Method in brief: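 ATP consumption by recombinant P. falciparum CDPK4 or CDPK1 measured as residual ATP by Kinase-Glo luminescence, with 40 μM Syntide-2 substrate and 90 min incubation stopped with 5 mM EGTA. Single-point screen at 1 μM final, followed by dose-response; no-substrate wells as negative control.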

[2] = biological target: PKG (Plasmodium falciparum, UniProt Q8I719); experiment: PKG IC50 (supplementary data file); type: biochemical
Excerpt: Supplement pone.0149996.s003.xls, sheet "combined_1_sorted"

[3] = biological target: AAK1 (Homo sapiens, UniProt Q2M2I8); experiment: biochemical; design: endogenous in cells; host or cells: K562 cell extract; species or system K562 (extract); replicate k of n = 2 (each experiment ID is one independent experiment; two experiment IDs per compound); conditions: read-out: KDapp
AAK1, sequence (Q2M2I8 whole entry): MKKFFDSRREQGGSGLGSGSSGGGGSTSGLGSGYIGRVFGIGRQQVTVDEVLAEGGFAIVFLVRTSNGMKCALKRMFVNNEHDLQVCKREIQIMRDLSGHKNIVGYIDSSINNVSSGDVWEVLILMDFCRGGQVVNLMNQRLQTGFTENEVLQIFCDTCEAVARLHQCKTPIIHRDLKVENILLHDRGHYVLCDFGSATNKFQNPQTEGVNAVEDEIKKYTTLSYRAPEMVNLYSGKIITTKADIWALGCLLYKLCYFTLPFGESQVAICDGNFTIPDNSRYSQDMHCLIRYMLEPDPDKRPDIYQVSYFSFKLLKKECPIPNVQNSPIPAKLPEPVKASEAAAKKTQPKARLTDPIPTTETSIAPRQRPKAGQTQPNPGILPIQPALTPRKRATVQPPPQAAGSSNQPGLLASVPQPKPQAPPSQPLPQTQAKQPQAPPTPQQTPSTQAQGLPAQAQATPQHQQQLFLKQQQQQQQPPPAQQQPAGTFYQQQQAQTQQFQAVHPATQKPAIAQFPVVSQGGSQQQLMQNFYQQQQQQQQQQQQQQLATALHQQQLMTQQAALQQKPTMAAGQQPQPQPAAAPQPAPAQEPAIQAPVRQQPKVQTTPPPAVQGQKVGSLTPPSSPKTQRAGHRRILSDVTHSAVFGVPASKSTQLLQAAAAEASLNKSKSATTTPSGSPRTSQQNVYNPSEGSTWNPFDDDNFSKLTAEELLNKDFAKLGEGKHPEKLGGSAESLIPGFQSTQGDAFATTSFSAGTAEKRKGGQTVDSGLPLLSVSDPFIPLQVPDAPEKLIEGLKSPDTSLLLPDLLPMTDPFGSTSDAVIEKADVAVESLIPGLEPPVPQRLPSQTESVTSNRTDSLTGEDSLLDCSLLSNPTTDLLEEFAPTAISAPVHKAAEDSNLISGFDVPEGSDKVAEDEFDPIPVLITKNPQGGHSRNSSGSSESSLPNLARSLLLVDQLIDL

[4] = biological target: CAMK2G (Homo sapiens, UniProt Q13555); experiment: biochemical; design: endogenous in cells; host or cells: K562 cell extract; species or system K562 (extract); replicate k of n = 2 (each experiment ID is one independent experiment; two experiment IDs per compound); conditions: read-out: KDapp
CAMK2G, sequence (Q13555 whole entry): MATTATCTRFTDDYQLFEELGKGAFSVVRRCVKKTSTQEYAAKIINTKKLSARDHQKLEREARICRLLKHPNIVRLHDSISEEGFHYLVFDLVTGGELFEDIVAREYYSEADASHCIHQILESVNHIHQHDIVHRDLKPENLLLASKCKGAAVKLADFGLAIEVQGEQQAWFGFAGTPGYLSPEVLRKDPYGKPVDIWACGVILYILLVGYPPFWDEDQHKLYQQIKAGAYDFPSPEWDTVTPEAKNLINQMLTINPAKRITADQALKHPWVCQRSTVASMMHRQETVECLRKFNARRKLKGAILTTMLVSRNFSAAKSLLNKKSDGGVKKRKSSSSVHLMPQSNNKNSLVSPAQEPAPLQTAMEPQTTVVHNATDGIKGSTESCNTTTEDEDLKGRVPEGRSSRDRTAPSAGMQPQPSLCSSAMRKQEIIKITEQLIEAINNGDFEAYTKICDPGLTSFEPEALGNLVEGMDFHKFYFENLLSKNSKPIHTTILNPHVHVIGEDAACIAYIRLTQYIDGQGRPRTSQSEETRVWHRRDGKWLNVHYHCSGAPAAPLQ

[5] = biological target: CDK6 (Homo sapiens, UniProt Q00534); experiment: biochemical; design: endogenous in cells; host or cells: K562 cell extract; species or system K562 (extract); replicate k of n = 2 (each experiment ID is one independent experiment; two experiment IDs per compound); conditions: read-out: KDapp
CDK6, sequence (Q00534 whole entry): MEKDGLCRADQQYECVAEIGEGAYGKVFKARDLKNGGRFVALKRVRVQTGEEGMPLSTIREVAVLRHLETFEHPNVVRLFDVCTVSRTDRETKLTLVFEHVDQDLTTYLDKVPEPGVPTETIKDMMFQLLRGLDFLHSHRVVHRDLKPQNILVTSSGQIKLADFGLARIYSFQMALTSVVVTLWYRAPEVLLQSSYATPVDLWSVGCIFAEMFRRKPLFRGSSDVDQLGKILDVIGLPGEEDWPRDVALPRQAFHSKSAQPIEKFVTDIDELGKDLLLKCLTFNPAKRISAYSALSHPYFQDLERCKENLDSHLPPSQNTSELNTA

[6] = biological target: ERN1 (Homo sapiens, UniProt O75460); experiment: biochemical; design: endogenous in cells; host or cells: K562 cell extract; species or system K562 (extract); replicate k of n = 2 (each experiment ID is one independent experiment; two experiment IDs per compound); conditions: read-out: KDapp
ERN1, sequence (O75460 whole entry): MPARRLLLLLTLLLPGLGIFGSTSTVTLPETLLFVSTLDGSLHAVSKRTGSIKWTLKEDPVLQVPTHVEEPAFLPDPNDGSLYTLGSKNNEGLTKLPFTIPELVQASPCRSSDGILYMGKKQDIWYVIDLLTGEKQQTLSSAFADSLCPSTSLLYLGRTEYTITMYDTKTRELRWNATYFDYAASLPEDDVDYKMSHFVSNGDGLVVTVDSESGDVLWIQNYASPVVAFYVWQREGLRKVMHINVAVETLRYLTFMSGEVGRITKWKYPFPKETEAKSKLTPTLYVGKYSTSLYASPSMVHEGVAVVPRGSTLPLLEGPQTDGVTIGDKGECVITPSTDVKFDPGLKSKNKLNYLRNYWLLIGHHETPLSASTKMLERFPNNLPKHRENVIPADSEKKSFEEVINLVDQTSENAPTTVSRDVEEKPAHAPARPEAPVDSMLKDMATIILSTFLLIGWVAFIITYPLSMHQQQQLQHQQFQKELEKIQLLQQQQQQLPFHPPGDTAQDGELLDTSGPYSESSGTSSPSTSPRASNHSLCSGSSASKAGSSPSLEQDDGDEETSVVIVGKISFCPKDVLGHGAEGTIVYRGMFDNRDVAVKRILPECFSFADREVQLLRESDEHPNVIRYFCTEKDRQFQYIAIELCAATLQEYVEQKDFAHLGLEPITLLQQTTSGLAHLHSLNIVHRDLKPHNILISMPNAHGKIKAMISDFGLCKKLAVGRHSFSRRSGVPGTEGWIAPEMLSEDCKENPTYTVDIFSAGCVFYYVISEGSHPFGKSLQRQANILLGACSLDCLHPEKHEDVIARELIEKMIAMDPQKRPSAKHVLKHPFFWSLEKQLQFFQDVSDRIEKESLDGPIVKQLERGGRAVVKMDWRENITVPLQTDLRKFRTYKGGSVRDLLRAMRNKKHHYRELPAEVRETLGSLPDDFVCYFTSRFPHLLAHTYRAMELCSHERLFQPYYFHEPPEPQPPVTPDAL

[7] = biological target: PIM2 (Homo sapiens, UniProt Q9P1W9); experiment: biochemical; design: endogenous in cells; host or cells: K562 cell extract; species or system K562 (extract); replicate k of n = 2 (each experiment ID is one independent experiment; two experiment IDs per compound); conditions: read-out: KDapp
PIM2, sequence (Q9P1W9 whole entry): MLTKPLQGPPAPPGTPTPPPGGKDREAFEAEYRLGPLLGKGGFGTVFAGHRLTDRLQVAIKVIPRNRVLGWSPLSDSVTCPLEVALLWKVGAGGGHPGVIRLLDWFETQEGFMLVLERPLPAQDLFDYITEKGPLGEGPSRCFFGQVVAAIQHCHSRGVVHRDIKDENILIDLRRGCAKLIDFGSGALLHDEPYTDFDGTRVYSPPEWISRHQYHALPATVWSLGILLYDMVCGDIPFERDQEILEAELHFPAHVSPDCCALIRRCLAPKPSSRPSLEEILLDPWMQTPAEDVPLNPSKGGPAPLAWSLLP

[8] = biological target: PRKCA (Homo sapiens, UniProt P17252); experiment: biochemical; design: endogenous in cells; host or cells: K562 cell extract; species or system K562 (extract); replicate k of n = 2 (each experiment ID is one independent experiment; two experiment IDs per compound); conditions: read-out: KDapp
[9] = biological target: T2, ULK3 (Homo sapiens, UniProt Q6PHR2); experiment: biochemical; design: endogenous in cells; host or cells: K562 cell extract; species or system K562 (extract); replicate k of n = 2 (each experiment ID is one independent experiment; two experiment IDs per compound); conditions: read-out: KDapp
T2 sequence (Q6PHR2 1-472): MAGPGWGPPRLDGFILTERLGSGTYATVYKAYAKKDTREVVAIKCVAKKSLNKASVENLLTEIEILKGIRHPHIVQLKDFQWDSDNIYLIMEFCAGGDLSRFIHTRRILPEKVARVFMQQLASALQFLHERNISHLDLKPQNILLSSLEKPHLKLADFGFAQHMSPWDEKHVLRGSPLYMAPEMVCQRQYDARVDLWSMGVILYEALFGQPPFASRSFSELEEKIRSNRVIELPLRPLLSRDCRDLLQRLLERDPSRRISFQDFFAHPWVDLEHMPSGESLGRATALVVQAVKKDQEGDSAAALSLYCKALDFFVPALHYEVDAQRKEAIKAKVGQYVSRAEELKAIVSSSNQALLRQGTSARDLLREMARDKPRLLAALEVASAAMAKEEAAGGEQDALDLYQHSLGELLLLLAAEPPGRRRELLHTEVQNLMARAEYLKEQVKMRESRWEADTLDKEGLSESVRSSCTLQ

[10] = tested on: 3D7 PFLDH; design: method as in ChEMBL; conditions: ref ChEMBL; cited from earlier work
[11] = biological target: TAOK1 (Homo sapiens, UniProt Q7L7X3); experiment: biochemical; design: endogenous in cells; host or cells: K562 cell extract; species or system K562 (extract); replicate k of n = 2 (each experiment ID is one independent experiment; two experiment IDs per compound); conditions: read-out: KDapp
TAOK1, sequence (Q7L7X3 whole entry): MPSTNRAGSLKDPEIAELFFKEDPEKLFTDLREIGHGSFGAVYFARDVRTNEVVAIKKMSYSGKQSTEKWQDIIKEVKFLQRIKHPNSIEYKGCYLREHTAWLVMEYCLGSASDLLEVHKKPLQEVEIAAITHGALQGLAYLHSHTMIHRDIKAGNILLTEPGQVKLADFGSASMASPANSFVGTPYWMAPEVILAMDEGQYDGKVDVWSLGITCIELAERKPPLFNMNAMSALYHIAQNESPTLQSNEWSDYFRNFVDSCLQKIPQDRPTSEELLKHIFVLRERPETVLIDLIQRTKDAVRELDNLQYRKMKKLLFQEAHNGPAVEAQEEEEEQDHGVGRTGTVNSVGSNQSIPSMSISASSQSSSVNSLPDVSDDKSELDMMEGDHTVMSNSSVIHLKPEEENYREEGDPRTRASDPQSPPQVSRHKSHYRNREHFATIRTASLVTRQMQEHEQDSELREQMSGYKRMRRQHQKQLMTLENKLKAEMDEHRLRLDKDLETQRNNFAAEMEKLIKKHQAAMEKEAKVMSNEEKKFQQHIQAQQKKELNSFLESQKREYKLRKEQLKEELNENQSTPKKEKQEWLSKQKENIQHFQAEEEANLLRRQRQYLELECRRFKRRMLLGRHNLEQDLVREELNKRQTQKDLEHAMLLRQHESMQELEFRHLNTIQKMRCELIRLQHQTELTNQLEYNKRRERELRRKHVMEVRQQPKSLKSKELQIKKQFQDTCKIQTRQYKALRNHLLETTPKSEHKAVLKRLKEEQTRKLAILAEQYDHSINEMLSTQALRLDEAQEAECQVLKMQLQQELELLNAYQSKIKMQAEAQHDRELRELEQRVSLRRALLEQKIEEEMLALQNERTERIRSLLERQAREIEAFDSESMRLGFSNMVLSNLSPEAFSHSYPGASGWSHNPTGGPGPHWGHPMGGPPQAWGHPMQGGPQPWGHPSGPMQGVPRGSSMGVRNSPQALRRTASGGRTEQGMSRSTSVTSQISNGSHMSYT

| Compound | IC50 [1] | IC50 [2] | Kd [3] | Kd [4] | Kd [5] | Kd [6] | Kd [7] | Kd [8] | Kd [9] | PCT_INHIB_3D7_PFLDH [10] | Kd [11] |
| --- | --- | --- | --- | --- | --- | --- | --- | --- | --- | --- | --- |
| CN1CCN(c2ccc(Nc3ncc(C#N)c(Nc4ccccc4C(N)=O)n3)cc2)CC1.Cl [TCMDC-134116] | 188 nM | 103 nM | 36.7 nM | 340 nM and 294 nM | 133 nM and 150 nM | 127 nM | 2970 nM | 393 nM | 16.4 nM and 25.9 nM |  |  |
| CN(C)CC(O)COc1ccc(Nc2ncc([N+](=O)[O-])c(Nc3ccccc3O)n2)cc1.O=C(O)C(F)(F)F (centres unmarked) [TCMDC-141399] |  |  |  |  |  |  |  |  |  | 0 | 4.3 µM |

Reference: publication PMC4774911, “Biochemical Screening of Five Protein Kinases from Plasmodium falciparum against 14,000 Cell-Active Compounds” (PLoS ONE, 2016)
